How the values were obtained:
hypertensive rat = details: in vivo
[1] = system: rats with induced chronic heart failure (CHF); assay: Cardiac function in rats with induced chronic heart failure; type: in vivo, Sprague-Dawley rats
Experimental: Both significance measures were at the P<0.05 level.
The following Examples 1 through 9 discuss data from rats with induced CHF. The Examples show many improved indicators associated with RTX treatment in CHF subjects. The rat models provide for comparison of epidural administration of RTX against epicardial administration of RTX and against various controls. For the epicardial data, RTX was administered directly to the epicardium by swab during open surgery contemporaneously with induced myocardial infarction (coronary artery ligation).
For epidural application of RTX, a small midline incision was made in the region of the T13-L1 thoracic vertebrae. Following dissection of the superficial muscles, two small holes (approximately 2 mm by 2 mm) were made in the left and right sides of the T13 vertebra. A polyethylene catheter (PE-10) was inserted into the […] via the left hole and gently advanced about 5.5-6 cm to the left T1 level at which the first injection (6 μg/mL, 10 μL) was made at a very slow speed to minimize the diffusion of RTX. Then the catheter was pulled back about 0.5 cm to left T2, T3, and T4, respectively, to perform serial injections (10 μL each) in each segment. Then the catheter was withdrawn and the same injection was repeated on the right side. A silicone gel was used to seal the hole in the T13 vertebra. The skin overlying the muscle was closed with a 3-0 polypropylene suture. Simple interrupted sutures were used to close the skin.
The experimental data included: body weight, heart weight, the ratio of heart weight to body weight (HW/BW), the ratio of wet lung weight to body weight (WLW/BW), the left ventricle end systolic pressure (LVESP), the left ventricle end diastolic pressure (LVEDP), maximum first derivative of left ventricular pressure (dp/dtmax), the minimum first derivative of left ventricular pressure (dp/dtmin), and infarct size. […] Both significance measures were at the P<0.05 level. […] The columns titled “Sham+vehicle” and “Sham+RTX” provide a comparison for sham rats without induced chronic heart failure, and without and with, respectively, epidural RTX treatment.
The experimental data included: body weight, heart weight, the ratio of heart weight to body weight (HW/BW), the ratio of wet lung weight to body weight (WLW/BW), mean arterial pressure (MAP), the left ventricle end diastolic pressure (LVEDP), heart rate, the maximum first derivative of left ventricular pressure (dp/dtmax), the minimum first derivative of left ventricular pressure (dp/dtmin), and infarct size. […] Both significance measures were at the P<0.05 level.

[2] = system: spontaneously hypertensive rat (SHR); assay: Arterial pressure in spontaneously hypertensive rat (SHR) model with established hypertension after epidural RTX; type: in vivo
Experimental: Open circles indicate the control population, while filled circles indicate the RTX-treated population. Epidural administration of RTX was by injection on Day 0, as indicated by the arrow on the graph.
The hypertensive model is a genetic spontaneously hypertensive rat (SHR). The early hypertension rats were treated at 8 weeks at age, reflecting a population in which blood pressure was only minimally elevated at the beginning of the study. Examples 10 and 11 illustrate treatment of subjects with hypertension and pre-hypertension (i.e., mild hypertension or early hypertension) and without induced CHF. For these subjects, epidural administration of RTX may be associated with an absolute reduction in blood pressure. Additionally, subjects treated with RTX may show less increase in blood pressure over time, as compared to a control population. Or, treatment may be associated with both an absolute reduction in pressure and lessened increase over time.
FIG. 14A-14C show further experimental results in a study using an (SHR) model. […] The established hypertensive rats were treated at 16 weeks at age, reflecting a population in which blood pressure was elevated at the beginning of the RTX administration. Open circles indicate the control population, while filled circles indicate the RTX-treated population. Epidural administration of RTX was by injection on Day 0, as indicated by the arrow on each graph. […] These subjects were not treated to induce myocardial infarction. The data allowed for comparison of SHR rats provided injection of the vehicle only (n=7) to those treated by injection of both vehicle and RTX (n=7).

[3] = system: established hypertensive rat model; assay: MAP and heart rate in established hypertensive rats after lumbar (L2-L5) RTX administration; type: in vivo
Experimental: Blood pressure measurements are 8 hours average per day.
Example 12 describes an experiment in which RTX administration was made to the lumbar region of a rat population (L2-L5).
Blood pressure continued to increase above the pre-injection baseline level by the end of the study period.

TRPV1 = TRPV1 (Rattus norvegicus, UniProt O35433); assay: TRPV1 receptor intensity by vertebral level after epidural RTX injection at T1-T4; type: in vivo; parameters: from tissue; host or cells: rat tissue at vertebral levels C6-L4 after in vivo epidural RTX; details: RTX injection at T1-T4 vertebral levels, FIG. 2
Excerpt: The nerves associated with the sympatho-excitation corresponding to increased cardiac sympathetic nerve activity are predominately found within the first four thoracic vertebral levels (Evans et al. (1953) N. Engl. J. Med. 249:791-796). Thus, administration to one or more of the first four thoracic vertebral levels may be beneficial because the nerves associated with cardiac sympathetic afferent nerve activity are predominately found within the first four thoracic vertebral levels. By treating these thoracic vertebral levels, denervation of these sympathetic afferent nerves will be substantially achieved with minimal or only partial denervation or ablation of nerves at other vertebral levels. […] Additionally, the small images inset on the figure show greater intensity of activity visible at the C6, C7, T6, T7, and L4 vertebral levels, as compared to the C8 through T5 vertebral levels.
For epidural application of RTX, a small midline incision was made in the region of the T13-L1 thoracic vertebrae. Following dissection of the superficial muscles, two small holes (approximately 2 mm by 2 mm) were made in the left and right sides of the T13 vertebra. […]

[4] = CHF + epidural RTX vs CHF + vehicle, P<0.05
[5] = established SHR, maintained throughout the study

Sequence of TRPV1 (O35433 whole entry): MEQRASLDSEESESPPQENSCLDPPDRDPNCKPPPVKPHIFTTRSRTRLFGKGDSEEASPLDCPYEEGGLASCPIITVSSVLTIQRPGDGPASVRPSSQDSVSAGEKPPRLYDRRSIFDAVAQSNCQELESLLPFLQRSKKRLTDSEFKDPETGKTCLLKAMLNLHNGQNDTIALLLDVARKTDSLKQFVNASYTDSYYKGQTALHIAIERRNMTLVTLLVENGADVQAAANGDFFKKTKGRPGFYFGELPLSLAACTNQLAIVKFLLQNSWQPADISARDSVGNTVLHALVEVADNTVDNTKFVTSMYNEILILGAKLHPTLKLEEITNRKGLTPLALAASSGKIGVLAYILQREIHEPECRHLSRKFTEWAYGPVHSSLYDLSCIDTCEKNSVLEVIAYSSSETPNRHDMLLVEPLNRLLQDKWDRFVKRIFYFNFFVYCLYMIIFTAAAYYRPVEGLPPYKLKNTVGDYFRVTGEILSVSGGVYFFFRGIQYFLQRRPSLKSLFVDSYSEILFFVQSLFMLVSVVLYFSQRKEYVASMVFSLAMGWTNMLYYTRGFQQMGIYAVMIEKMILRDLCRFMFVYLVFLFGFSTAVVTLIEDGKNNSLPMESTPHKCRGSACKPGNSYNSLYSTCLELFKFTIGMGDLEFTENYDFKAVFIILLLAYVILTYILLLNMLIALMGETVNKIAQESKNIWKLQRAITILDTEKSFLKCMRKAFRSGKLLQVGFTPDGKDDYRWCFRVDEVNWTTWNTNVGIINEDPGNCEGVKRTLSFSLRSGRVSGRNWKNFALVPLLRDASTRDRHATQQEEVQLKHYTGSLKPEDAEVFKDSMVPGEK

C=C(C)[C@]12C[C@@H](C)[C@@]34O[C@](Cc5ccccc5)(O[C@@H]1[C@@H]3C=C(COC(=O)Cc1ccc(O)c(OC)c1)C[C@]1(O)C(=O)C(C)=C[C@@H]41)O2 [RTX, resiniferatoxin]
ABP, MAP and heart rate following injection (hypertensive rat): substantial short term increases | average short-term increase in MAP over baseline (hypertensive rat): about 30 mmHg | duration of transient increase in blood pressure, heart rate, or both (hypertensive rat): about five or ten | left ventricle end diastolic pressure, increase over sham ([1]; CHF + epidural RTX (CHF + vehicle: 380%)): 60% | infarct size, difference ([1]; CHF + epidural RTX vs CHF + vehicle): not being statistically significant | heart weight [1, 4]: statistically significantly better | heart weight as a percentage of body weight [1, 4]: statistically significantly better | left ventricle end diastolic pressure [1, 4]: statistically significantly better | minimum first derivative of left ventricular pressure (dp/dtmin) [1, 4]: statistically significantly better | wet lung weight as a percentage of body weight [1, 4]: statistically significantly better | cardiac function results, epidural versus epicardial administration ([1]; FIG. 5 column D vs FIG. 6 column H): comparable to the results achieved by epicardial administration, or are in some cases better | day from which MAP reduction was significant vs vehicle-only ([2]; established SHR): ~8 days | day from which diastolic arterial pressure differed significantly from vehicle-only ([2]; established SHR): ~8 days | day from which systolic arterial pressure differed significantly from vehicle-only ([2]; established SHR): ~7 days | mean arterial pressure (MAP) vs pre-injection baseline ([2]; established SHR, epidural RTX, observed throughout 55-day period): some reduction | diastolic arterial pressure vs pre-injection baseline [2, 5]: decrease | systolic arterial pressure vs pre-injection baseline [2, 5]: decrease | MAP following treatment ([2]; established hypertensive rats): 125-130 mmHg | heart rate following RTX injection ([3]; RTX L2-L5): increase in heart rate | time over which heart rate increase subsides ([3]; RTX L2-L5, after injection): 2 to 10 days | time at which MAP returned to the pre-injection baseline ([3]; RTX L2-L5, after treatment): 15 to 20 days | MAP following lumbar injection ([3]; RTX L2-L5, established hypertensive rats): reduced immediately | sustained treatment of hypertension ([3]; RTX to lumbar region L2-L5): does not achieve the sustained treatment of hypertension | reduced vanilloid (TRPV1) receptor intensity, localisation (TRPV1): generally localized to the four treated vertebral levels and the one or two vertebral levels proximate the treated vertebral levels

Source: patent US20250082605A1 (priority 2016, published 2025)
